Measurements: the NIST ThermoML archive (doi:10.1016/j.tca.2008.05.002)

Test: molar heat capacity at saturation pressure
Conditions: Crystal 4, Small (less than 1 g) adiabatic calorimetry

CCCCn1cc[n+](C)c1.O=[N+]([O-])[O-] [1-butyl-3-methylimidazolium nitrate]
Conditions	molar heat capacity [J/K/mol]
5.05 K	0.5514
5.29 K	0.65
5.54 K	0.7586
5.8 K	0.8834
6.06 K	1.024
6.36 K	1.195
6.69 K	1.409
7.03 K	1.636
7.37 K	1.896
7.72 K	2.169
8.08 K	2.473
8.44 K	2.803
8.8 K	3.145
9.16 K	3.525
9.53 K	3.922
9.91 K	4.346
10.39 K	4.934
10.97 K	5.66
11.56 K	6.445
12.15 K	7.288
12.75 K	8.194
13.35 K	9.123
13.96 K	10.11
14.57 K	11.12
15.18 K	12.21
15.91 K	13.62
16.74 K	15.21
17.58 K	16.85
18.42 K	18.5
19.27 K	20.2
20.12 K	21.95
21.25 K	24.37
22.68 K	27.47
24.11 K	30.69
25.54 K	33.91
26.98 K	37.09
28.44 K	40.37
29.9 K	43.58
31.35 K	46.78
32.99 K	50.29
34.79 K	54.05
36.58 K	57.69
38.37 K	61.25
40.17 K	64.77
42.06 K	68.4
44.07 K	72.18
46.09 K	75.84
48.1 K	79.42
50.1 K	82.76
52.11 K	86.06
54.13 K	89.28
56.14 K	92.32
58.16 K	95.28
60.19 K	98.2
62.22 K	101.03
64.26 K	103.75
66.29 K	106.43
68.34 K	109.04
70.38 K	111.5
72.42 K	113.97
74.46 K	116.39
76.5 K	118.68
78.55 K	120.96
80.3 K	122.59
80.56 K	122.99
80.61 K	123.11
82.15 K	124.42
82.41 K	124.84
82.67 K	125.14
84.01 K	126.23
84.27 K	126.67
84.72 K	127.15
85.89 K	128.02
86.14 K	128.46
87.78 K	129.91
88.03 K	130.27
89.67 K	131.68
89.92 K	132.02
91.58 K	133.45
91.83 K	133.79
93.5 K	135.16
93.75 K	135.5
95.43 K	136.91
95.68 K	137.25
97.36 K	138.62
97.62 K	138.98
99.3 K	140.37
99.56 K	140.68
101.25 K	142.08
102.25 K	142.93
103.21 K	143.75
104.22 K	144.6
105.18 K	145.34
106.19 K	146.25
107.15 K	146.93
108.17 K	147.88
109.13 K	148.52
110.16 K	149.43
111.11 K	150.07
112.15 K	150.98
113.1 K	151.62
114.14 K	152.51
115.1 K	153.15
116.14 K	154.02
117.1 K	154.68
118.14 K	155.53
119.11 K	156.13
120.15 K	157.05
121.12 K	157.68
122.17 K	158.58
123.13 K	159.23
124.19 K	160.07
125.15 K	160.68
126.21 K	161.54
127.17 K	162.15
128.23 K	163.05
129.2 K	163.65
130.26 K	164.54
131.23 K	165.12
132.3 K	166.01
133.26 K	166.61
134.34 K	167.5
135.3 K	168.06
136.37 K	168.99
137.33 K	169.59
138.41 K	170.52
139.37 K	171.1
140.46 K	172.05
141.42 K	172.55
142.5 K	173.51
143.46 K	174.12
144.54 K	175.06
145.5 K	175.61
146.58 K	176.59
147.55 K	177.16
148.63 K	178.1
149.59 K	178.69
150.67 K	179.61
151.64 K	180.2
152.72 K	181.14
153.69 K	181.74
154.76 K	182.69
155.74 K	183.23
156.81 K	184.24
157.78 K	184.76
158.86 K	185.75
159.83 K	186.31
160.91 K	187.26
161.87 K	187.84
162.96 K	188.75
163.91 K	189.21
165 K	190.24
165.95 K	190.7
167.05 K	191.85
168 K	192.27
169.09 K	193.36
170.04 K	193.84
171.13 K	194.94
172.08 K	195.39
173.17 K	196.55
174.12 K	196.86
175.21 K	198.14
176.16 K	198.59
177.25 K	199.73
178.2 K	200.16
179.28 K	201.42
180.24 K	201.83
181.31 K	203.03
182.28 K	203.44
183.34 K	204.64
184.31 K	205.05
185.37 K	206.25
186.34 K	206.66
187.39 K	207.86
188.36 K	208.47
189.42 K	209.67
190.39 K	210.08
191.44 K	211.28
192.41 K	211.89
193.45 K	212.89
194.43 K	213.5
195.47 K	214.71
196.44 K	215.31
197.48 K	216.31
198.45 K	216.92
199.49 K	218.13
200.46 K	218.73
201.55 K	219.94
202.53 K	220.54
203.67 K	221.75
204.65 K	222.35
205.78 K	223.56
206.76 K	224.16
207.89 K	225.37
208.87 K	225.97
210 K	227.38
210.98 K	227.78
212.11 K	229.19
213.09 K	229.6
214.21 K	231
215.19 K	231.61
216.3 K	232.82
217.29 K	233.62
218.4 K	234.63
219.38 K	235.63
220.49 K	236.44
221.47 K	237.44
222.58 K	238.25
